In paper PMC10380766, “Development of Hydrophobic Cell-Penetrating Stapled Peptides as Drug Carriers” (International Journal of Molecular Sciences, 2023):

Tests used:
HEK293 cells [1] = assay: Cellular-uptake mechanism: endocytosis inhibitors and 4 °C; type: cell-based; conditions: peptide 5 µM, flow cytometry
Excerpt: To inhibit specific endocytic pathways, three different inhibitors were used: amiloride, nystatin, and sucrose. Each inhibitor targets a distinct endocytic pathway: amiloride inhibits […] (a form of endocytosis where cells engulf fluid and solutes); nystatin inhibits caveolae-mediated endocytosis (a process involving small invaginations in the cell membrane called caveolae); and sucrose inhibits clathrin-mediated endocytosis (a mechanism in which the protein clathrin forms coated pits on the cell surface to internalize molecules). As a control, a peptide called nona-arginine (R9) with CF […] was used. This peptide is known to enter cells via endocytosis. The uptake of CF-R9 with that of the parent peptide F-1 and the stapled peptide F-3 was compared.
HEK293 cells were seeded in 24-well plates at a density of 200,000 cells/well and cultured in DMEM for 23 h. After the medium had been replaced with fresh medium containing 10% FBS in the absence or presence of amiloride (5 mM), sucrose (0.4 M), or nystatin (25 μg/mL), the cells were pre-incubated at 37 °C for 30 min. Then, the cells were treated with the relevant peptide (peptide concentration; 5 µM) and incubated for 30 min at 37 °C. […] Then, the cells were analyzed by a BD accuri C6 Plus flow cytometer (BD Bioscience, New Jersey). […]

[2] = DLS measurement of peptide/pDNA complexes (size, PDI); type: physicochemical; conditions: peptide/pDNA complex, mean ± SD of 3 measurements; for Size: cumulant method
Method: (§1) The ability of peptides F-1–F-4 to deliver pDNA was evaluated using complexes between the peptides and pDNA in 10 mM Hepes buffer (pH 7.3). The zeta potentials and sizes of the peptide/pDNA complexes prepared at various charge ratios were determined (Table 2). The size of the F-1 peptide/pDNA complexes at a charge ratio of 2 was 3364 nm, and the sizes decreased with an increase in the charge ratios (Table 2). The sizes of the peptide/pDNA complexes were in the order of several hundred nm, which is considered to be a useful size for the delivery of pDNA, except for the complex with F-1 at N/P = 2, which was defined as the residual molar ratio of the amino groups in polycations of peptides (N) to the phosphate groups in pDNA (P). […] Thus, we examined the complexes of F-1–F-4 at N/P = 8 to evaluate the effect of the stapling of TP10 on the ability to deliver pDNA.
(§2) Each 1 mM peptide solution in DMSO and pDNA was dissolved separately in 10 mM Hepes buffer (pH 7.3). To form peptide/pDNA complexes, peptide solutions of various concentrations were added to the pDNA solution in 2-fold excess. The final pDNA concentration was adjusted to […]. After the complex solutions were stored at room temperature for 15 min, the complex solutions were added. The charge ratio was defined as the residual molar ratio of the amino group of amino acid in the peptide to the phosphate group in the pDNA.
(§3) The zeta-potentials of the peptide/pDNA complexes in 10 mM Hepes buffer (pH 7.3) were evaluated by the laser-Doppler electrophoresis method using Nano ZS (ZEN3600, Malvern Instruments, Ltd., Malvern, UK) with a He–Ne ion laser (633 nm). Light scattering data were obtained at a detection angle of 173° and temperature of 25 °C, and were subsequently analyzed by the cumulant method to obtain the hydrodynamic diameters, polydispersity indices (PDI) (m/G^2) and zeta-potential of the complexes. Results were presented as the mean and standard deviation of 3 measurements (Table 2).

[3] = Zeta-potential measurement of peptide/pDNA complexes; type: physicochemical; conditions: peptide/pDNA complex, laser-Doppler electrophoresis, 10 mM Hepes pH 7.3, 25 °C, mean ± SD of 3 measurements
Method: as §1, §2, §3

pDNA = assay: Displacement assay with dextran sulfate (gel retardation); type: physicochemical; conditions: N/P = 8, 100 ng pDNA, 30 min at 37 °C, agarose gel
Method: (§4) The intracellular uptake of Cy5-labeled pDNA complexed with peptides F-1–F-4 was evaluated in […] cells. The fluorescence intensity of Cy5 incorporated into […] was quantified using flow cytometry at 24 h after administration (Figure 5). […] The stability of the peptide/pDNA complex was then evaluated by adding the negatively charged competitive inhibitor, dextran sulfate.
Complex with 100 ng of pDNA and peptide at N/P ratio = 8 were incubated for 30 min at 37 °C in the presence of dextran sulfate (sodium salt, Wako, Japan) at various concentrations ranging 0, 0.05, 0.1, 0.5, and 1 mg/mL. After the incubation, the samples were analyzed on agarose gel and the gel was stained with SYBR Gold (Thermo Fisher Scientific, Waltham, MA, USA).
Figure S1. Cellular uptake of peptide/Cy5-pDNA complexes at N/P = 8 with HEK293 cells. Cellular uptake ability was determined by flow cytometry. The cells were excited with a 488 nm light from an LD laser for detecting FAM-p eptide. Error bars represent the mean±standard deviation, n = 4.
Dextran sulfate Dextran sulfate Dextran sulfate Dextran sulfate […]
Figure S2. Physicochemical characterization of peptide/pDNA complexes at N/P = 8 with dextran sulfate. Gel retardation assay for evaluation of the stability and the dissociation of the peptide/pDNA complexes upon treatment with dextran sulfate at different concentrations ranging from 0 to 1 mg/mL. […]

HEK293 cells [4] = assay: Cellular uptake of peptide/Cy5-pDNA complexes by flow cytometry; type: cell-based; conditions: peptide/Cy5-pDNA complex at N/P = 8, HEK293 cells, flow cytometry 488 nm excitation, n = 4 (Figure S1)
Method: as §4
Figure 5 Cellular uptake of peptide/Cy5-pDNA complexes at N/P = 8 in HEK293 cells. The cellular uptake ability was determined by flow cytometry. The cells were excited with a 635 nm light for detecting Cy5-pDNA. Error bars represent the mean ± standard deviation, n = 4.
as §2, with “The charge ratio was defined as the residual molar ratio of the amino group of amino acid in the peptide to the phosphate group in the pDNA.” left out
HEK293 cells were seeded on 24-well culture plates (100,000 cells/well) and incubated overnight in 500 μL of DMEM. […] The cell pellets obtained were suspended in PBS and the cells were analyzed by a BD accuri C6 Plus flow cytometer (BD Bioscience, New Jersey).
Figure S1. […] Cellular uptake ability was determined by flow cytometry. […]

[5] = CD spectroscopy, secondary structure (R value); type: physicochemical; conditions: 10% acetonitrile in 20 mM phosphate buffer pH 7.4, peptide 50 µM, ratio of CD signal intensities at 222 and 208 nm
Method: CD measurements were performed to analyze the preferred secondary structures of the synthesized peptides F-1–F-4 (10% acetonitrile in 20 mM phosphate buffer, pH 7.4) (Figure 2). […] These characteristic Cotton effects indicated the presence of a helical structure in F-1. […] To further evaluate the dominant secondary structures of the peptides, a parameter called the R value (θ222/θ208) was calculated. The R value represents the ratio of the CD signal intensities at 222 nm and 208 nm, respectively. For the peptides F-1, F-2, F-3, and F-4, the R values were determined to be 0.72, 1.83, 0.95, and 1.58, respectively. Based on previous studies, these R values indicate that the dominant secondary structures of all the peptides were α-helices.
CD spectra were recorded with a JASCO J-1100 CD spectrometer using a 1.0 mm path length cell. The data are expressed in terms of [θ]; i.e., total molar ellipticity (deg cm^2 dmol^−1). Peptides were dissolved in 10% MeCN in 20 mM phosphate buffer solution at 50 µM concentrations. Each parameter was: wavelength: 190–260 nm; bandwidth: 1 nm; response: 1 s; speed: 50 nm min^−1; accumulations: 3 times; and path length: […].

[6] = N/P ratio 2, 10 mM Hepes pH 7.3, 25 °C
[7] = N/P ratio 4, 10 mM Hepes pH 7.3, 25 °C
[8] = N/P ratio 8, 10 mM Hepes pH 7.3, 25 °C

Which “cellular uptake when incubated at 4 °C” value (HEK293 cells [1]; 30 min at 4 °C compared with 37 °C) does the source give for “CF-XAGYLLGKINLKALAAS5*AKKS5*L (sidechain bridge or staple) [F-3, C-terminal stapled TP10 analog, Leu and Ile replaced with S5 residues, CF-labelled]” here?
The value was “significantly inhibited”.

What about the “cellular uptake when treated with endocytosis inhibitors” value (HEK293 cells [1]; 30 min at 37 °C after 30 min pre-incubation with amiloride (5 mM), sucrose (0.4 M) or nystatin (25 μg/mL), n=3) of the same substance?
The value was “significantly inhibited”.

What about the Size [2, 6] of the same substance?
Its Size is 391 ± 8 nm.

What about the PDI [2, 6] of the same substance?
The PDI was 0.417 ± 0.049.

What about the Size [2, 7] of the same substance?
The Size was 352 ± 57 nm.

What about the PDI [2, 7] of the same substance?
The PDI was 0.366 ± 0.054.

And the Size [2, 8]?
Its Size is 324 ± 53 nm.

What about the PDI [2, 8] of the same substance?
The PDI was 0.399 ± 0.083.

And the Zeta-Potential ([3]; N/P ratio 2)?
The Zeta-Potential was 22.9 ± 1.1 mV.

And the Zeta-Potential ([3]; N/P ratio 4)?
The Zeta-Potential was 18.0 ± 1.7 mV.

And the Zeta-Potential ([3]; N/P ratio 8)?
Its Zeta-Potential is 20.6 ± 3.0 mV.

And the “concentration of dextran sulfate at which the peptide/pDNA complex dissociated” value (pDNA; dextran sulfate 0, 0.05, 0.1, 0.5, 1 mg/mL, SYBR Gold (Figure S2))?
The value was 0.5 mg/mL.

What about the “stability of the peptide/pDNA complex against dextran sulfate” value (pDNA; dextran sulfate 0-1 mg/mL) of the same substance?
The value was “less stable than the other complexes”.

What about the “fluorescence from peptide detected by CF after adding peptide/Cy5-pDNA complex” value (HEK293 cells [4]) of the same substance?
The value was “strongest fluorescence”.

And the “R value (θ222/θ208)” value [5]?
Its value is 0.95.
